{"source": "paper PMC8449414", "about": "“Rational design of ASCT2 inhibitors using an integrated experimental-computational approach” (Proceedings of the National Academy of Sciences of the …, 2021)", "biological_target": "T1, rASCT2 (Rattus norvegicus, UniProt D3ZJ25)", "T1 construct": "expressed in transfected cells; host or cells: HEK293 (ATCC CRL-11268), transient transfection", "T1 sequence (D3ZJ25 1-555)": "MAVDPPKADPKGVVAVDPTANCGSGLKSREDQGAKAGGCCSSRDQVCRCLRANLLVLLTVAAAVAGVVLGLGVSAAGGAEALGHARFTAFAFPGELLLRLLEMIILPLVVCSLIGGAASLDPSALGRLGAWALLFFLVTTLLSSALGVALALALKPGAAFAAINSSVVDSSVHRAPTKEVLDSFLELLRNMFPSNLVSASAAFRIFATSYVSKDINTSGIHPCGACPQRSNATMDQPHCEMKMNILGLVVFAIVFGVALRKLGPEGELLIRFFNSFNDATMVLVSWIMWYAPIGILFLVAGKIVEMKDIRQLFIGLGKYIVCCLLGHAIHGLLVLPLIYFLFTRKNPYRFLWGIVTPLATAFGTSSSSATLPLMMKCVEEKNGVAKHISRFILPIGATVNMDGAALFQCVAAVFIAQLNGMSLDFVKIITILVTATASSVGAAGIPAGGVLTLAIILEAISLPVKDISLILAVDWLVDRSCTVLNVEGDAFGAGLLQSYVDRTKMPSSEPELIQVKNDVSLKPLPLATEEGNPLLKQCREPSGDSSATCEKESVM", "assay": "Inhibitor dissociation kinetics by ligand displacement with alanine (rapid solution exchange)", "format": "cell-based", "procedure": "Fig. 2. […] (A) Electrophysiological recordings obtained after application of alanine (red trace) and increasing concentrations of Lc-BPE (black traces). The times of application of alanine or Lc-BPE are shown by a gray bar (top). (B and C) Lc-BPE inhibitor dose–response relationships for rASCT2 and hASCT2, respectively. […] Currents were normalized to the current recorded after application of 10 µM inhibitor concentration. (D) Inhibition of glutamine uptake (5 µM external concentration) in the presence of varying concentration of Lc-BPE and 5 µM glutamine measured in proteoliposomes reconstituted with purified hASCT2. […] Errors bars represent SEM from at least two biologically independent measurements. (E) Current recorded after rapid solution exchange from extracellular buffer (control, gray bar, black trace) to a solution containing buffer + 5 mM alanine (white bar). For the red trace, the cell was preincubated with 10 µM Lc-BPE (red bar, red trace) followed by rapid application of 5 mM alanine. All current recordings were performed at 0 mV in the presence of 130 mM NaSCN internal and 140 mM NaCl external (homoexchange) solutions. […]\nTo test this, we measured the dissociation kinetics of Lc-BPE using a ligand displacement approach. First, rASCT2-expressing cells were preincubated with a saturating solution of Lc-BPE (10 µM), and subsequently the inhibitor was displaced using a supersaturating concentration of the substrate L-alanine (5 mM) (Fig. 2 E and F).", "key": {"[1]": {"settings": "preincubation with 10 µM inhibitor, displaced with 5 mM alanine"}}}
{"smiles": "O=C(O[C@@H]1CN[C@H](C(=O)O)C1)c1ccc(-c2ccccc2)cc1", "note": "[Lc-BPE, L-cis hydroxyproline biphenyl ester]", "values": [{"measurement": "slowing of activation of the anion current by alanine after preincubation", "setting": "10 µM inhibitor preincubation, 5 mM alanine", "result": "more than sixfold"}, {"measurement": "rate constant kobs, mean (single-exponential fit)", "setting": "preapplied 10 µM inhibitor followed by 5 mM alanine, 0 mV", "result": "4.9 ± 0.2", "unit": "s⁻¹"}, {"measurement": "rate constant for dissociation", "setting": "[1]", "result": 2.16, "unit": "s⁻¹"}, {"measurement": "residence time in the rASCT2 binding site", "setting": "[1]", "result": "~500", "unit": "ms"}]}
